One may read the IC50 as the concentration at which inhibition is half-maximal. A low value points to higher potency.

Where a SMILES comes first, the peptide text is derived from it. A value given as a limit tells only on which side of the number the result lay.

Some targets named below: HLA A*0101 (Homo sapiens, UniProt P04439, A114D/A174V/A182V/D101N/D185E/E176A/E190D/L180R/Q94H/R68K/S129P/T187R/V100A/V91M/W191G); HLA A*0301 (Homo sapiens, UniProt P04439); HLA A*0201 (Homo sapiens, UniProt P04439, D140Y/D185E/D98H/E176V/E277Q/G131W/G231S/I119V/I121R/I166T/I218V/L300P/L318F/N151K/N90K/P208A/P217A/Q86G/Q94H/R138H/R169H/T345S).
What all share (experiment): HLA class I binding assay (cell-free competition, fluorescence polarization)

On to `CC(C)C[C@H](NC(=O)[C@H](C)NC(=O)[C@H](CO)NC(=O)[C@@H](NC(=O)[C@H](CCCCN)NC(=O)[C@H](CC(=O)O)NC(=O)[C@H](CCCNC(=N)N)NC(=O)[C@@H](N)CS)[C@@H](C)O)C(=O)N[C@@H](Cc1ccc(O)cc1)C(=O)O` (H-CRDKTSALY-OH; N-terminus assumed), for which the IC50 at HLA A*0101 was > 1000 µM.

At HLA A*0101, `CC(C)C[C@H](NC(=O)[C@H](CC(=O)O)NC(=O)[C@H](CC(=O)O)NC(=O)[C@H](CO)NC(=O)[C@@H](N)CC(=O)O)C(=O)N[C@@H](CCCCN)C(=O)N[C@@H](CCC(=O)O)C(=O)N[C@@H](CO)C(=O)N[C@@H](Cc1ccc(O)cc1)C(=O)O` (H-DSDDLKESY-OH) gave an IC50 of 2.6 µM.

Regarding `CC(C)[C@H](NC(=O)[C@H](CCC(=O)O)NC(=O)[C@H](Cc1ccccc1)NC(=O)[C@@H](NC(=O)[C@@H](N)CC(=O)O)[C@@H](C)O)C(=O)N[C@@H](Cc1ccc(O)cc1)C(=O)N[C@@H](CO)C(=O)N[C@@H](CCC(=O)O)C(=O)N[C@@H](Cc1ccc(O)cc1)C(=O)O` (H-DTFEVYSEY-OH; N-terminus assumed), the IC50 on HLA A*0301 and on HLA A*0101 was > 1000 µM in each case.

In the case of `CC[C@H](C)[C@H](NC(=O)[C@@H](N)Cc1ccccc1)C(=O)N[C@@H](CC(=O)O)C(=O)N1CCC[C@H]1C(=O)N[C@@H](CCC(N)=O)C(=O)N[C@H](C(=O)N[C@@H](CCC(=O)O)C(=O)N[C@@H](CCSC)C(=O)N[C@@H](Cc1ccccc1)C(=O)N[C@@H](CCCCN)C(=O)O)[C@@H](C)O` (H-FIDPQTEMFK-OH), the values for the IC50 at HLA A*0301 and on HLA A*0101 were 8.1 µM and 46.6 µM, respectively.

Consider `CC(C)C[C@H](NC(=O)[C@@H]1CCCN1C(=O)[C@H](Cc1ccccc1)NC(=O)[C@H](CC(N)=O)NC(=O)[C@H](Cc1ccccc1)NC(=O)[C@H](CC(N)=O)NC(=O)[C@H](CCC(=O)O)NC(=O)[C@H](CC(C)C)NC(=O)[C@@H](N)Cc1ccccc1)C(=O)O` (H-FLENFNFPL-OH), for which the IC50 was 3.68 µM on HLA A*0201 and > 1000 µM at HLA A*0101.

Consider `CC(C)[C@H](NC(=O)[C@H](CC(N)=O)NC(=O)[C@@H](NC(=O)[C@@H](N)Cc1ccccc1)[C@@H](C)O)C(=O)N[C@@H](CC(N)=O)C(=O)N[C@@H](CCC(N)=O)C(=O)N[C@@H](Cc1ccccc1)C(=O)N[C@@H](Cc1ccccc1)C(=O)N[C@@H](CCCCN)C(=O)O` (H-FTNVNQFFK-OH), for which the half-maximal inhibitory concentration (IC50) was 0.921 µM at HLA A*0301 and > 1000 µM at HLA A*0101.

Regarding `NCCCC[C@H](NC(=O)[C@H](CO)NC(=O)CN)C(=O)N[C@@H](CC(N)=O)C(=O)N[C@@H](CC(=O)O)C(=O)N[C@@H](Cc1ccccc1)C(=O)N[C@@H](CCC(N)=O)C(=O)N[C@@H](CCC(N)=O)C(=O)N[C@@H](CCC(N)=O)C(=O)N[C@@H](Cc1ccc(O)cc1)C(=O)O` (H-GSKNDFQQQY-OH; N-terminus assumed), the IC50 at HLA A*0101 is > 1000 µM.

For the compound `CC(C)C[C@H](NC(=O)CNC(=O)[C@@H]1CCCN1C(=O)[C@H](Cc1ccccc1)NC(=O)[C@@H](NC(=O)[C@H](CO)NC(=O)[C@@H](NC(=O)[C@@H](N)Cc1c[nH]cn1)[C@@H](C)O)C(C)C)C(=O)N[C@@H](Cc1ccc(O)cc1)C(=O)O` (H-HTSVFPGLY-OH), on HLA A*0101, the 50% inhibitory concentration (IC50) is 5.65 µM.

Turning to `CC[C@H](C)[C@H](N)C(=O)N[C@H](C(=O)N[C@@H](CC(N)=O)C(=O)N[C@@H](CCCCN)C(=O)N[C@@H](CC(N)=O)C(=O)N[C@@H](CCCCN)C(=O)N[C@H](C(=O)N[C@H](C(=O)N[C@H](C(=O)N[C@@H](Cc1ccc(O)cc1)C(=O)O)[C@@H](C)CC)[C@@H](C)O)C(C)C)[C@@H](C)O` (H-ITNKNKVTIY-OH), the IC50 on HLA A*0301 is 8.72 µM; at HLA A*0101 it was > 1000 µM.

Take `CC(C)[C@H](NC(=O)[C@H](CCC(=O)O)NC(=O)[C@H](Cc1ccccc1)NC(=O)[C@@H](NC(=O)[C@H](CC(=O)O)NC(=O)[C@H](CC(=O)O)NC(=O)[C@H](CCC(=O)O)NC(=O)[C@@H](N)CCCCN)[C@@H](C)O)C(=O)N[C@@H](Cc1ccc(O)cc1)C(=O)O` (H-KEDDTFEVY-OH; N-terminus assumed): the half-inhibitory concentration (IC50) at HLA A*0101 was > 1000 µM.

`CC(C)C[C@H](NC(=O)[C@H](CC(=O)O)NC(=O)[C@H](CC(C)C)NC(=O)[C@H](CO)NC(=O)[C@@H]1CCCN1C(=O)[C@H](CCCCN)NC(=O)[C@H](CC(N)=O)NC(=O)[C@H](CC(C)C)NC(=O)[C@H](CC(C)C)NC(=O)[C@@H](N)CCCCN)C(=O)O` (H-KLLNKPSLDL-OH): the IC50 on HLA A*0201 was 4.26 µM; at HLA A*0301, 2.36 µM.

Compound `CC[C@H](C)[C@H](NC(=O)[C@@H](N)CC(C)C)C(=O)N[C@@H](CO)C(=O)N[C@@H](CCCNC(=N)N)C(=O)N[C@@H](CC(C)C)C(=O)N[C@H](C(=O)N[C@@H](CC(C)C)C(=O)N[C@@H](CCCCN)C(=O)N[C@@H](Cc1ccc(O)cc1)C(=O)O)[C@@H](C)O` (H-LISRLTLKY-OH) registered an IC50 at HLA A*0101 of 11.5 µM. This counts as double-digit micromolar.

At HLA A*0101, `CC[C@H](C)[C@H](NC(=O)[C@H](CC(N)=O)NC(=O)[C@H](CCC(=O)O)NC(=O)[C@@H](NC(=O)[C@H](CC(N)=O)NC(=O)[C@H](CO)NC(=O)[C@H](CO)NC(=O)[C@@H](N)CC(C)C)[C@@H](C)CC)C(=O)N[C@@H](Cc1ccc(O)cc1)C(=O)O` (H-LSSNIENIY-OH) yielded a half-maximal inhibitory concentration (IC50) of 29.6 µM. Compared with the last compound, the IC50 is about 2.6-fold higher.

For `CC(C)C[C@H](N)C(=O)N[C@H](C(=O)N[C@@H](Cc1c[nH]cn1)C(=O)N[C@@H](CCCCN)C(=O)N[C@@H](Cc1ccc(O)cc1)C(=O)N[C@@H](CC(N)=O)C(=O)N[C@@H](CCC(=O)O)C(=O)N[C@@H](Cc1ccccc1)C(=O)N[C@H](C(=O)O)C(C)C)[C@@H](C)O` (H-LTHKYNEFV-OH), the values for the IC50 at HLA A*0201 and at HLA A*0101 were 2.41 µM and 174 µM, respectively.

Take `CSCC[C@H](NC(=O)[C@H](CC(N)=O)NC(=O)[C@H](CC(N)=O)NC(=O)[C@H](CCCNC(=N)N)NC(=O)[C@H](Cc1ccccc1)NC(=O)[C@H](CC(N)=O)NC(=O)[C@H](CC(N)=O)NC(=O)[C@@H](N)CC(N)=O)C(=O)N[C@@H](Cc1ccc(O)cc1)C(=O)O` (H-NNNFRNNMY-OH; N-terminus assumed): on HLA A*0101, the half-maximal inhibitory concentration (IC50) was > 1000 µM.

On to `CC[C@H](C)[C@H](NC(=O)[C@H](CC(C)C)NC(=O)[C@H](CC(=O)O)NC(=O)[C@H](CC(C)C)NC(=O)[C@H](CCCCN)NC(=O)[C@H](CC(=O)O)NC(=O)[C@H](CO)NC(=O)[C@@H](N)CC(N)=O)C(=O)N[C@@H](Cc1ccc(O)cc1)C(=O)O` (H-NSDKLDLIY-OH), for which the IC50 on HLA A*0101 is 0.875 µM.

For the compound `CC(C)[C@H](NC(=O)[C@H](CC(N)=O)NC(=O)[C@@H]1CCCN1C(=O)[C@H](CO)NC(=O)[C@@H](N)CC(N)=O)C(=O)N[C@@H](CC(N)=O)C(=O)N[C@@H](CCCCN)C(=O)N[C@@H](CCCNC(=N)N)C(=O)N[C@@H](Cc1ccc(O)cc1)C(=O)O` (H-NSPNVNKRY-OH; N-terminus assumed), the IC50 at HLA A*0101 was > 1000 µM.

On to `CC(C)C[C@H](NC(=O)[C@H](C)NC(=O)[C@H](CC(=O)O)NC(=O)[C@H](Cc1ccccc1)NC(=O)[C@@H](NC(=O)[C@@H](N)CC(N)=O)[C@@H](C)O)C(=O)N[C@@H](Cc1ccc(O)cc1)C(=O)N[C@@H](Cc1ccc(O)cc1)C(=O)N[C@H](C(=O)O)C(C)C` (H-NTFDALYYV-OH), for which the half-maximal inhibitory concentration (IC50) on HLA A*0201 is 8.76 µM; on HLA A*0101 it was > 1000 µM.

The compound `CC(C)[C@H](NC(=O)[C@@H](NC(=O)[C@@H](N)CC(N)=O)[C@@H](C)O)C(=O)N[C@@H](CCCCN)C(=O)N[C@@H](CS)C(=O)N1CCC[C@H]1C(=O)N[C@@H](CC(N)=O)C(=O)N[C@@H](CC(=O)O)C(=O)N[C@@H](Cc1ccc(O)cc1)C(=O)O` (H-NTVKCPNDY-OH) registered an IC50 at HLA A*0101 of 282 µM.

At HLA A*0101, `C[C@H](NC(=O)[C@H](CO)NC(=O)[C@@H](N)CO)C(=O)N[C@@H](CC(N)=O)C(=O)N[C@@H](CC(=O)O)C(=O)N[C@@H](CCC(=O)O)C(=O)N[C@@H](CCC(N)=O)C(=O)N[C@@H](CO)C(=O)N[C@@H](Cc1ccc(O)cc1)C(=O)O` (H-SSANDEQSY-OH) came in with an IC50 of 65 µM.

Consider `CC[C@H](C)[C@H](NC(=O)[C@H](CC(=O)O)NC(=O)[C@@H](NC(=O)[C@@H](N)CO)[C@@H](C)O)C(=O)N[C@H](C(=O)N[C@@H](Cc1ccccc1)C(=O)N[C@@H](CC(C)C)C(=O)N[C@H](C(=O)N[C@@H](CCSC)C(=O)N[C@@H](CCCCN)C(=O)O)[C@@H](C)O)[C@@H](C)CC` (H-STDIIFLTMK-OH), for which the figures for the IC50 at HLA A*0301 and on HLA A*0101 were 8.78 µM and > 1000 µM, respectively.

Consider `CSCC[C@H](NC(=O)[C@H](CC(N)=O)NC(=O)[C@H](CCC(N)=O)NC(=O)[C@H](CC(N)=O)NC(=O)[C@H](C)NC(=O)[C@H](CCSC)NC(=O)[C@@H](N)[C@@H](C)O)C(=O)N[C@@H](CC(N)=O)C(=O)N[C@@H](Cc1ccc(O)cc1)C(=O)O` (H-TMANQNMNY-OH), for which the IC50 on HLA A*0301 is 0.943 µM; on HLA A*0101 it was 2.02 µM.

In the case of `C[C@@H](O)[C@H](N)C(=O)N[C@@H](CO)C(=O)N[C@@H](CCCCN)C(=O)N[C@@H](CCC(N)=O)C(=O)NCC(=O)N[C@@H](CO)C(=O)N[C@@H](CO)C(=O)N[C@@H](CC(N)=O)C(=O)N[C@@H](CCCCN)C(=O)N[C@@H](Cc1ccc(O)cc1)C(=O)O` (H-TSKQGSSNKY-OH; N-terminus assumed), on HLA A*0101, the IC50 was > 1000 µM.

Turning to `CC(C)[C@H](NC(=O)[C@H](CO)NC(=O)[C@H](CCC(=O)O)NC(=O)[C@H](Cc1ccccc1)NC(=O)[C@H](Cc1ccccc1)NC(=O)[C@@H](NC(=O)[C@@H](N)[C@@H](C)O)[C@@H](C)O)C(=O)N[C@@H](CO)C(=O)N[C@@H](Cc1ccc(O)cc1)C(=O)O` (H-TTFFESVSY-OH), the IC50 at HLA A*0301 worked out at 658 µM; at HLA A*0101, 338 µM.

Source of the values: paper PMC8138313, “Identification, Selection and Immune Assessment of Liver Stage CD8 T Cell Epitopes From Plasmodium falciparum” (Frontiers in Immunology, 2021).
